Key:
Format in all cases: physicochemical
Solubility test (溶解度试验) = conditions: stated in words; values of table 2 missing in this copy
[1] = Strong light (4500lx±500lx) stability
[2] = High temperature (60℃) stability
[3] = High humidity (RH92.5%) stability

solubility (Solubility test (溶解度试验)): 较好的溶解性
crystal form stability (X-ray powder diffraction result) [1]: X-射线粉末衍射结果均未发生变化,仍保持原本晶型
crystal form stability (X-ray powder diffraction result) [2]: X-射线粉末衍射结果均未发生变化,仍保持原本晶型
crystal form stability (X-ray powder diffraction result) [3]: X-射线粉末衍射结果均未发生变化,仍保持原本晶型
SMILES: COc1cc(C(=O)OCCCCNC(=N)N)cc(OC)c1O [盐酸益母草碱α晶型, 盐酸益母草碱]

Reference: patent CN108129355A, “一种盐酸益母草碱α晶型及其制备方法和应用” (Jingde Xinxing Biological Technology Co Ltd, priority 2018, dated 2018)
